flash point [°C]	SMILES
7	C[C@@H]1CCCC[C@H]1C (relative stereo) [trans-1,2-dimethylcyclohexane]
-26	C=C(CC)CC [2-ethyl-1-butene]
2	CC#CCCCC [2-heptyne]
-47	C=C(C)CC [2-methyl-1-butene]
-14	C1=CC2CCC1C2 [2-norbornene]
65	CCC(C)(C)c1ccccc1 [2-phenyl-2-methylbutane]
-18	C=CC(C)CCC (configuration not stated) [3-methyl-1-hexene]
2	C=CCC(C)CCC (configuration not stated) [4-methyl-1-heptene]
5	CCCC(C)CCC [4-methylheptane]
41	CCCC(CCC)CCC [4-propylheptane]
29	C=CCC1CCCCC1 [allylcyclohexane]
6	C[C@@H]1CCC[C@H](C)C1 [cis-1,3-dimethylcyclohexane]
-8	C/C=C\CCCC [cis-2-heptene]
-9	CC/C=C\CCC [cis-3-heptene]
-36	C/C=C\C(C)C [cis-4-methyl-2-pentene]
14	CC(C)C1CCCC1 [isopropylcyclopentane]
35	CCCCC1CCCC1 [n-butylcyclopentane]
66	CCCCCC1CCCCC1 [n-pentylcyclohexane]
16	CCCC1CCCC1 [propylcyclopentane]
-27	C/C=C/CCC [trans-2-hexene]
-25	CC/C=C/CC [trans-3-hexene]

SMILES	flash point [°C]
C1CCC(C2CCCCC2)CC1 [bicyclohexyl]	92
C1CC[C@H]2CCCC[C@H]2C1 [cis-decalin]	58
CCCCc1ccccc1 [n-butylbenzene]	50

Remark: another data set of the same source

flash point [°C]	SMILES
79	CCc1cccc(CC)c1CC [1,2,3-triethylbenzene]
109.2	CCCCc1cccc(CCCC)c1 [1,3-dibutylbenzene]
97.0	CC(C)(C)c1ccc(C(C)(C)C)cc1 [1,4-di-tert -butylbenzene]
64.7	Cc1ccc(C)c(C(C)C)c1 [1,4-dimethyl-2-isopropylbenzene]
70.8	CCCCc1cccc(C)c1 [1-butyl-3-methylbenzene]
71.2	CCCCc1ccc(C)cc1 [1-butyl-4-methylbenzene]
65.1	CCc1cccc(C)c1C [1-ethyl-2,3-dimethylbenzene]
57.1	CCc1ccc(C)cc1C [1-ethyl-2,4-dimethylbenzene]
57.4	CCc1cc(C)cc(C)c1 [1-ethyl-3,5-dimethylbenzene]
68.7	Cc1ccccc1CC(C)C [1-isobutyl-2-methylbenzene]
72	Cc1cc(C)cc(C(C)(C)C)c1 [1-tert -butyl-3,5-dimethylbenzene]
62.0	CCc1c(C)cccc1C [2-ethyl-1,3-dimethylbenzene]
59.4	CCC(C)(C)c1ccccc1 [2-phenyl-2-methylbutane]
61.5	Cc1ccccc1C(C)(C)C [2-tert -butyltoluene]
87.0	CC(C)CC(C)Cc1ccccc1 (configuration not stated) [(2,4-dimethylpentyl)benzene]
64.1	CCC(C)Cc1ccccc1 (configuration not stated) [(2-methylbutyl)benzene]
95.5	CCCCCCCc1ccccc1 [heptylbenzene]
83.6	CCCCCCc1ccccc1 [hexylbenzene]
51.1	CCc1cccc(CC)c1 [m -diethylbenzene]
63	CCc1cccc(C(C)C)c1 [m -ethylcumene]
52	CCCc1cccc(C)c1 [m -propyltoluene]
50.1	CC(C)(C)Cc1ccccc1 [neopentylbenzene]
107.1	CCCCCCCCc1ccccc1 [octylbenzene]
65.8	CCc1ccc(C(C)C)cc1 [p -ethylcumene]
56.4	CCCc1ccc(C)cc1 [p -propyltoluene]
44.1	CC(C)(C)c1ccccc1 [tert -butylbenzene]

SMILES	flash point [°C]
Cc1cc(C)cc(C)c1 [1,3,5-trimethylbenzene]	44.1
CCCCc1ccccc1 [butylbenzene]	58.1
CC(C)Cc1ccccc1 [isobutylbenzene]	50.1
Cc1ccccc1C [o -xylene]	30.1

Remark: another data set of the same source

SMILES	flash point [°C]
CC(C)[O-].CC(C)[O-].CC(C)[O-].[B+3] [BORON ISOPROPOXIDE]	28.00
C[O-].C[O-].C[O-].[B+3] [BORON METHOXIDE]	-1.00
CCCC[O-].CCCC[O-].CCCC[O-].[B+3] [BORON n-BUTOXIDE]	93.00
CCCCC(CC)C(=O)[O-].CCCCC(CC)C(=O)[O-].[Ca+2] (configuration not stated) [CALCIUM 2-ETHYLHEXANOATE]	127.00
[CH3][Cd][CH3] [DIMETHYLCADMIUM]	-18.00
c1ccc(Pc2ccccc2)cc1 [DIPHENYLPHOSPHINE]	110.00
CC[N-]C.CC[N-]C.CC[N-]C.CC[N-]C.[Hf+4] [HAFNIUM TETRAKIS(ETHYLMETHYLAMIDE)]	10.00
C[CH2][Pb]([CH2]C)([CH2]C)[CH2]C [TETRAETHYLLEAD]	73.00
CC(C)C[O-].CC(C)C[O-].CC(C)C[O-].CC(C)C[O-].[Ti+4] [TITANIUM ISOBUTOXIDE]	77.00
C[O-].C[O-].C[O-].C[O-].[Ti+4] [TITANIUM METHOXIDE]	48.00
Cc1ccccc1[O-].Cc1ccccc1[O-].Cc1ccccc1[O-].Cc1ccccc1[O-].[Ti+4] [TITANIUM METHYLPHENOXIDE]	66.00
C[N-]C.C[N-]C.C[N-]C.C[N-]C.[Ti+4] [TITANIUM TETRAKIS(DIMETHYLAMIDE)]	8.00
CCCC[O-].CCCC[O-].CCCC[O-].CCCC[O-].[Ti+4] [TITANIUM n-BUTOXIDE]	76.00
CCOP(OCC)OCC [TRIETHYLPHOSPHITE]	54.00
CCCCCCCCP(CCCCCCCC)CCCCCCCC [TRIOCTYLPHOSPHINE]	147.00
CC[N](CC)[Ta](=[N]C(C)(C)C)([N](CC)CC)[N](CC)CC [TRIS(DIETHYLAMINO)(t-BUTYLIMINO) TANTALUM]	46.00
C[Si](C)(C)OB(O[Si](C)(C)C)O[Si](C)(C)C [TRIS(TRIMETHYLSILOXY)BORON]	42.00
C=C[c-]1cccc1.[Fe+2].c1cc[cH-]c1 [VINYLFERROCENE]	62.00
CCCCC(CC)C(=O)[O-].CCCCC(CC)C(=O)[O-].[Zn+2] (configuration not stated) [ZINC 2-ETHYLHEXANOATE]	127.00
CC(C)(C)CCCCCC(=O)[O-].CC(C)(C)CCCCCC(=O)[O-].[Zn+2] [ZINC NEODECANOATE]	102.00

Remark: another data set of the same source

SMILES	flash point [°C]
CCCCCl [1-Chlorobutane]	-9.3

Remark: another data set of the same source

flash point [°C]	SMILES
8	CC#CCCCC [2-heptyne]

Remark: another data set of the same source

flash point [°C]	SMILES
19.1	CCC(C)(C)CCl [1-Chloro-2,2-dimethylbutane]
10	CCC(C)CCl (configuration not stated) [1-Chloro-2-methylbutane]
25.1	CCCC(C)CCl (configuration not stated) [1-Chloro-2-methylpentane]
39.2	CCCC(C)CCCl (configuration not stated) [1-Chloro-3-methylhexane]
25.1	CCC(C)CCCl (configuration not stated) [1-Chloro-3-methylpentane]
41.8	CCCCCCCCl [1-Chloroheptane]
138.2	CCCCCCCCCCCCCCCCCl [1-Chlorohexadecane]
26.8	CCCCCCCl [1-Chlorohexane]
94.5	CCCCCCCCCCCCl [1-Chloroundecane]
29.8	CCC(C)C(C)(C)Cl (configuration not stated) [2-Chloro-2,3-dimethylpentane]
38.4	CC(C)(C)CC(C)(C)Cl [2-Chloro-2,4,4-trimethylpentane]
47.2	CCCCCC(C)(C)Cl [2-Chloro-2-methylheptane]
72.2	CCCCCCCC(C)(C)Cl [2-Chloro-2-methylnonane]
21	CCCC(C)(C)Cl [2-Chloro-2-methylpentane]
77.1	CCCCCCCCC(C)Cl (configuration not stated) [2-Chlorodecane]
25.1	CCCCC(C)Cl (configuration not stated) [2-Chlorohexane]
65.2	CCCCCCCC(C)Cl (configuration not stated) [2-Chlorononane]
25.1	CCC(CC)CCl [3-(Chloromethyl)pentane]
51.7	CCCC(C)(Cl)C(C)(C)C (configuration not stated) [3-Chloro-2,2,3-trimethylhexane]
43.6	CCCC(C)(Cl)C(C)C (configuration not stated) [3-Chloro-2,3-dimethylhexane]
33.6	CCC(Cl)(CC)CC [3-Chloro-3-ethylpentane]
47.2	CCCCC(C)(Cl)CC (configuration not stated) [3-Chloro-3-methylheptane]
72.2	CCCCCCC(C)(Cl)CC (configuration not stated) [3-Chloro-3-methylnonane]
9.5	CCC(C)(Cl)CC [3-Chloro-3-methylpentane]
39.2	CCCCC(Cl)CC (configuration not stated) [3-Chloroheptane]
25.1	CCCC(Cl)CC (configuration not stated) [3-Chlorohexane]
65.2	CCCCC(Cl)CCCC [5-Chlorononane]
110.1	CCCCCCCCC(Cl)CCCC (configuration not stated) [5-Chlorotridecane]
73.8	CCC[C@H](Cl)CCCC(C)C [(S)-6-Chloro-2-methylnonane]

SMILES	flash point [°C]
CCCCCl [1-Chlorobutane]	-11.0
CCCCCCCCCl [1-Chlorooctane]	61.1

Remark: another data set of the same source

flash point [°C]	SMILES
6	C[C@@H]1CCCC[C@H]1C (relative stereo) [trans-1,2-dimethylcyclohexane]
-20	C=C(CC)CC [2-ethyl-1-butene]
-34	C=C(C)CC [2-methyl-1-butene]
-15	C1=CC2CCC1C2 [2-norbornene]
5	C[C@@H]1CCC[C@H](C)C1 [cis-1,3-dimethylcyclohexane]
95	CCCCCCCc1ccccc1 [heptylbenzene]
-20	C/C=C/CCC [trans-2-hexene]

SMILES	flash point [°C]
CCCCc1ccccc1 [butylbenzene]	49
CC(C)Cc1ccccc1 [isobutylbenzene]	55
CCCCc1ccccc1 [n-butylbenzene]	59

From a flash point compilation (Sun et al. 2020)
